In patent publication US20220348651A1, “ENTPD2 ANTIBODIES, COMBINATION THERAPIES, AND METHODS OF USING THE ANTIBODIES AND COMBINATION THERAPIES” (Novartis AG, priority 2019, published 2022) one finds anti-tumor efficacy data, which are given here for one compound.

For this experiment, the system named is human ENTPD2 engineered B16LM3 clone B5. Kind of experiment: Human ENTPD2 engineered B16LM3 clone B5 model, combination with A2AR antagonist NIR178. The experiment is classed as in vivo. The conditions noted are these: NIR178 50 or 200 mg/kg p.o. 4 days on, 3 days off, combined with non-specific isotype control. The protocol: Human ENTPD2-engineered B16LM3 clone B5 was established in female C57BL/6 mice by subcutaneous injection of 0.5×10^6 cells into the right flank of each mouse. Once tumors reached approximately 50 mm^3, mice were randomized according to tumor volume into treatment groups (n=8 per group). Mice received an intravenous (i.v.) treatment of either anti-ENTPD2 mAb1 at a final dose of 10/mg/kg or a non-specific human IgG1 isotype control 10 mg/kg on day 1 of study. NIR178 was administered per os (p.o.) for 4 days on and 3 days off, starting at the beginning of study at either 50 mg/kg or 200 mg/kg. All doses were adjusted to individual mouse body weights. The study was carried out for thirteen days post treatment initiation and tumor volumes were assessed every other day to assess efficacy.

As for `Nc1nc(-n2cccn2)nc(-n2cccn2)c1Br` [NIR178, 5-bromo-2,6-di-(1H-pyrazol-1-yl)pyrimidine-4-amine, reference compound], the anti-tumor efficacy entry is recorded as “No significant anti-tumor efficacy”.
